A word on the IC50: it is the concentration that inhibits the measured activity by half.

The nature of test [1]: Reduction in PICP levels in human cardiac fibroblasts incubated for 24 to 48 hrs by ELISA. It counts as functional. On the technique in general: ELISA stands for enzyme-linked immunosorbent assay.
In another test the target is T1, Tolloid-like protein 2 (Homo sapiens, UniProt Q9Y6L7).
T1 sequence (Q9Y6L7 whole entry): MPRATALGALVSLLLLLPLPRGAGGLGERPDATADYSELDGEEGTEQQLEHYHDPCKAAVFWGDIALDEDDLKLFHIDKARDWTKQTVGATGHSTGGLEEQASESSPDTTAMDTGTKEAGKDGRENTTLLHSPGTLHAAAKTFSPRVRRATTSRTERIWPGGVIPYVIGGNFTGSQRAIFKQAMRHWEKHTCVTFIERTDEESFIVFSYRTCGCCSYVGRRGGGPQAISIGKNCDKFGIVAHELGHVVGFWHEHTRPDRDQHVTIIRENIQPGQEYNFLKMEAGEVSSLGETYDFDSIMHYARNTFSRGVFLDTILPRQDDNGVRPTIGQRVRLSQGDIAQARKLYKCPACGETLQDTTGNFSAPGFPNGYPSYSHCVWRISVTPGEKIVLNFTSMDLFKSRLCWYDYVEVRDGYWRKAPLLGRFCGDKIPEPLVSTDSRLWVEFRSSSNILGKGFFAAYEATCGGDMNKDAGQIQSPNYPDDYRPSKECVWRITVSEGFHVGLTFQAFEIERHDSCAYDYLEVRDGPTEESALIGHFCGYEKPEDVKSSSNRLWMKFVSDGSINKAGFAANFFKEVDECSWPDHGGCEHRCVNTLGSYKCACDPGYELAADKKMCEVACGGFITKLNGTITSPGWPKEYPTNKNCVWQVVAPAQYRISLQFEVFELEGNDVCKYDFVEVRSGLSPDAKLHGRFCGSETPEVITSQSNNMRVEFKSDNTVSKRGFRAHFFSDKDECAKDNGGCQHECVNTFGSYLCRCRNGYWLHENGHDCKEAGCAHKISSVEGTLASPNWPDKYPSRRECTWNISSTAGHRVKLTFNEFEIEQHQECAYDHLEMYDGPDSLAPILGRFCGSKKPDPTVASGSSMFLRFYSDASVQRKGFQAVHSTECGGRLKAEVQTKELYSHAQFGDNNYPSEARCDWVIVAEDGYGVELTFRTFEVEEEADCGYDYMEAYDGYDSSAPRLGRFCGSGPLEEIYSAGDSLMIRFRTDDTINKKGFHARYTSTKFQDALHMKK
Briefly: Inhibition of C-terminal Avi-6x-His epitope tagged and N-terminal human RAGE signal sequence tagged recombinant human TLL2 (26 to 1015 amino acids) expressed in CHOE1A cells incubated for 60 mins with promyostatin peptide substrate by FRET based assay. It counts as cell-based.

Test [2] has as its target T2, Bone morphogenetic protein 1 (Homo sapiens, UniProt P13497).
T2 sequence (P13497 whole entry): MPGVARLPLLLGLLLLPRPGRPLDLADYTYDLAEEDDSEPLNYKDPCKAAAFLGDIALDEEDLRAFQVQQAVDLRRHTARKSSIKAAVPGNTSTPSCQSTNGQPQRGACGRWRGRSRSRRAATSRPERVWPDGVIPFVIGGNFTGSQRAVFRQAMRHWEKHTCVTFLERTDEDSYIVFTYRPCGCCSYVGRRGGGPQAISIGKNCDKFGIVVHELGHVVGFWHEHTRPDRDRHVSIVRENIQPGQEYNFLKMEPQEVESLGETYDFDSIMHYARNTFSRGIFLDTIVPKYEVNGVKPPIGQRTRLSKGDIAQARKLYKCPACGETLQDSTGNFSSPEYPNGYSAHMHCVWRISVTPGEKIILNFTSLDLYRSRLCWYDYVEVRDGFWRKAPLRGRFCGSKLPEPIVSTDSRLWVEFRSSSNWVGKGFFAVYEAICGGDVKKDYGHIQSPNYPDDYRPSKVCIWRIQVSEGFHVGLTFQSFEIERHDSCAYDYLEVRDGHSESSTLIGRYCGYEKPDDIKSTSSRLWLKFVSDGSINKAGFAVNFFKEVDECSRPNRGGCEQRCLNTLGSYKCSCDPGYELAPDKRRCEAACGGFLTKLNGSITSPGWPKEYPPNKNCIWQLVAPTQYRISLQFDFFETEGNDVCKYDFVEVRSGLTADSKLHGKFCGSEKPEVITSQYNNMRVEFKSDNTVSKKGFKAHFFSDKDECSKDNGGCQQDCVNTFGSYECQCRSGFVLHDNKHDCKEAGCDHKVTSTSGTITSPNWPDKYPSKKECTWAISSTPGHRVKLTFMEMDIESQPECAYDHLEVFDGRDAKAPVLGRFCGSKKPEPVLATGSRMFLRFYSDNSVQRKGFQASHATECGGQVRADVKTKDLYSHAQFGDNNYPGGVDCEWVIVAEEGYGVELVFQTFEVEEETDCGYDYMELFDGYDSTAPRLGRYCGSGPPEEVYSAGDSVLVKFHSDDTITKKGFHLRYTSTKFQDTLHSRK
Briefly: Inhibition of C-terminal FLAG-6x-His epitope tagged and N-terminal human RAGE signal sequence tagged human BMP1 (23 to 721 amino acids) expressed in CHO-E1A cells pre-incubated for 10 mins before promyostatin peptide substrate addition and measured after 30 mins using 50 nM BMP1 by FRET based assay. It counts as cell-based.

A further test addresses Tolloid-like protein 1 (Homo sapiens, UniProt O43897, I156V/N221S/V284A). Briefly: Inhibition of recombinant human TLL1 I156V/N221S/V284A mutant expressed in CHOE1A cells pre-incubated for 10 mins before promyostatin peptide substrate addition and measured after 60 mins by FRET based assay. In kind it is cell-based.
In test [3] the target is T2, Bone morphogenetic protein 1. Briefly: Inhibition of C-terminal FLAG-6x-His epitope tagged and N-terminal human RAGE signal sequence tagged human BMP1 (23 to 721 amino acids) expressed in CHO-E1A cells pre-incubated for 10 mins before promyostatin peptide substrate addition and measured after 60 mins using 0.5 nM BMP1 by FRET based assay. In kind it is cell-based.

Sequence of Tolloid-like protein 1 (O43897 148-1013 I156V/N221S/V284A limits assumed): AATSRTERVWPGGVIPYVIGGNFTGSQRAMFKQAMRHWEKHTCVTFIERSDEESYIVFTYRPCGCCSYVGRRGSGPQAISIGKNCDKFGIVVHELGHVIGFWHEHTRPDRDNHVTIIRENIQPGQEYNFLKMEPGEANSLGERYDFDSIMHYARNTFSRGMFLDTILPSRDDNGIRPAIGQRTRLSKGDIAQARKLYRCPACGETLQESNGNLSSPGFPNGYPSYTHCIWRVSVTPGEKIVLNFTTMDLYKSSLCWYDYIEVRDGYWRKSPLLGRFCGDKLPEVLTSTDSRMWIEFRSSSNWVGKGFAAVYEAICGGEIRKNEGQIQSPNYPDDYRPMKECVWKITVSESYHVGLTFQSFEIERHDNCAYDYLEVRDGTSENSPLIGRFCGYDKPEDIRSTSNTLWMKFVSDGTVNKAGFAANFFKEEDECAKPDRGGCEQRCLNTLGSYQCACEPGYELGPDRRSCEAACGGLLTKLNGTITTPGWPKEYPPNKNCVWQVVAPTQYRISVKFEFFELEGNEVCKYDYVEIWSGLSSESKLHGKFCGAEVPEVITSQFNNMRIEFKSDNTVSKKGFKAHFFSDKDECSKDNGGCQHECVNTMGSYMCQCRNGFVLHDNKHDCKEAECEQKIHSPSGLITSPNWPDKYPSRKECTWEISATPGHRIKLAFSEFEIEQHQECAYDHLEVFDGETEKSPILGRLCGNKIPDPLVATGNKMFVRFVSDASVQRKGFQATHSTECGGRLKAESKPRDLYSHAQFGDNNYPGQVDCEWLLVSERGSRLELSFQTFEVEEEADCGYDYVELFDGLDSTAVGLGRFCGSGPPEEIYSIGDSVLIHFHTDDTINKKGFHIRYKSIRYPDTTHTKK

With `CCCCC[C@@H](C(=O)NCNC(=O)c1cccc(-c2ccc(P(=O)(O)O)c(OCC)c2)c1)[C@@H](CC)N(O)C=O`, the IC50 in test [1] was less than 20000 nM; on Tolloid-like protein 2 it was less than 631 nM; in test [2] it was less than 251 nM; at Tolloid-like protein 1, less than 398 nM; in test [3] it was less than 126 nM.
In the same order, the values of `CCCCC[C@@H](C(=O)NCNC(=O)c1cccc(-c2cc(OCC)cc(C(=O)N(CC(=O)O)CC(=O)O)c2)n1)[C@@H](CC)N(O)C=O` are less than 20000 nM, less than 631 nM, less than 251 nM, less than 398 nM and less than 126 nM.
In the same order, the values of `CCCCC[C@@H](C(=O)NCNC(=O)c1cccc(-c2ccc(C(=O)NCP(=O)(O)O)c(OCC)c2)n1)[C@@H](CC)N(O)C=O` are less than 20000 nM, less than 631 nM, less than 251 nM, less than 398 nM and less than 126 nM.
On the same counts, the results for `CCCCC[C@@H](C(=O)NCNC(=O)c1cccc(-c2cc(OCC)cc(C(=O)O)c2O)n1)[C@@H](CC)N(O)C=O` are less than 20000 nM, less than 631 nM, less than 251 nM, less than 398 nM and less than 126 nM.
For `CCCCC[C@@H](C(=O)NCNC(=O)c1cncc(-c2ccc(C(=O)O)c(OCC)c2)n1)[C@@H](CC)N(O)C=O`, the IC50 in test [1] is less than 20000 nM; at Tolloid-like protein 2, less than 631 nM; in test [2], less than 251 nM; on Tolloid-like protein 1, less than 398 nM; in test [3], less than 126 nM.
Consider `CCCCC[C@@H](C(=O)NCNC(=O)c1cccc(-c2cc(O)cc(P(=O)(O)O)c2)n1)[C@@H](CC)N(O)C=O`, for which the IC50 is less than 20000 nM in test [1]; less than 631 nM on Tolloid-like protein 2; less than 251 nM in test [2]; less than 398 nM on Tolloid-like protein 1; less than 126 nM in test [3].
For the compound `CCCCC[C@@H](C(=O)NCNC(=O)c1cccc(-c2ccc(C(=O)O)c(O)c2)c1)[C@@H](CC)N(O)C=O`, the 50% inhibitory concentration (IC50) in test [1] was less than 20000 nM; at Tolloid-like protein 2 it was less than 631 nM; in test [2], less than 251 nM; on Tolloid-like protein 1, less than 398 nM; in test [3], less than 126 nM.
In the same order, the values of `CCCCC[C@@H](C(=O)NCNC(=O)c1cccc(-c2ccc(C(=O)N[C@@H](CC(=O)O)C(=O)O)c(OCC(=O)O)c2)n1)[C@@H](CC)N(O)C=O` are less than 20000 nM, less than 631 nM, less than 251 nM, less than 398 nM and less than 126 nM.
For the compound `CCCCC[C@@H](C(=O)NCNC(=O)c1cccc(-c2cc(OCC)cc(P(=O)(O)O)c2)c1)[C@@H](CC)N(O)C=O`, the IC50 is less than 20000 nM in test [1]; less than 631 nM on Tolloid-like protein 2; less than 251 nM in test [2]; less than 398 nM on Tolloid-like protein 1; less than 126 nM in test [3].
In the same order, the values of `CCCCC[C@@H](C(=O)NCNC(=O)c1cccc(-c2ccc(C(=O)NCP(=O)(O)O)c(C)c2)n1)[C@@H](CC)N(O)C=O` are less than 20000 nM, less than 631 nM, less than 251 nM, less than 398 nM and less than 126 nM.
In the same order, the values of `CCCCC[C@@H](C(=O)NCNC(=O)c1cc(C(=O)O)cc(-c2ccccc2)c1)[C@@H](CC)N(O)C=O` are less than 20000 nM, less than 631 nM, less than 251 nM, less than 398 nM and less than 126 nM.
Take `CCCCC[C@@H](C(=O)NCNC(=O)c1cccc(-c2ccc(C(=O)N[C@@H](CC(=O)O)C(=O)O)c(F)c2)n1)[C@@H](CC)N(O)C=O`: the IC50 in test [1] was less than 20000 nM; at Tolloid-like protein 2 it was less than 631 nM; in test [2], less than 251 nM; on Tolloid-like protein 1, less than 398 nM; in test [3], less than 126 nM.
In the same order, the values of `CCCCC[C@@H](C(=O)NCNC(=O)c1cccc(-c2cc(OCC)cc(P(=O)(O)O)c2)n1)[C@@H](CC)N(O)C=O` are less than 20000 nM, less than 631 nM, less than 251 nM, less than 398 nM and less than 126 nM.
On the same counts, the results for `CCCCC[C@@H](C(=O)NCNC(=O)c1cccc(-c2ccc(C(=O)NCP(=O)(O)O)cc2)n1)[C@@H](CC)N(O)C=O` are less than 20000 nM, less than 631 nM, less than 251 nM, less than 398 nM and less than 126 nM.
For the compound `CCCCC[C@@H](C(=O)NCNC(=O)c1cccc(-c2ccc(C(=O)NCP(=O)(O)O)c(O)c2)n1)[C@@H](CC)N(O)C=O`, the IC50 is less than 20000 nM in test [1]; less than 631 nM on Tolloid-like protein 2; less than 251 nM in test [2]; less than 398 nM on Tolloid-like protein 1; less than 126 nM in test [3].
As for `CCCCC[C@@H](C(=O)NCNC(=O)c1cccc(-c2ccc(C(=O)N[C@@H](CC(=O)O)C(=O)O)c(Cl)c2)n1)[C@@H](CC)N(O)C=O`, the IC50 was less than 20000 nM in test [1]; less than 631 nM on Tolloid-like protein 2; less than 251 nM in test [2]; less than 398 nM on Tolloid-like protein 1; less than 126 nM in test [3].
In the same order, the values of `CCCCC[C@@H](C(=O)NCNC(=O)c1ccc(F)c(-c2ccc(C(=O)O)c(OCC)c2)n1)[C@@H](CC)N(O)C=O` are less than 20000 nM, less than 631 nM, less than 251 nM, less than 398 nM and less than 126 nM.
For the compound `CCCCC[C@@H](C(=O)NCNC(=O)c1cccc(-c2cc(OCC)cc(S(=O)(=O)O)c2)c1)[C@@H](CC)N(O)C=O`, the IC50 in test [1] was less than 20000 nM; on Tolloid-like protein 2 it was less than 631 nM; in test [2] it was less than 251 nM; at Tolloid-like protein 1, less than 398 nM; in test [3], less than 126 nM.
For `CCCCC[C@@H](C(=O)NCNC(=O)c1cccc(-c2ccc(C(=O)N[C@@H](CC(=O)O)C(=O)O)c(OCC(=O)O)c2)c1)[C@@H](CC)N(O)C=O`, the IC50 is less than 20000 nM in test [1]; less than 631 nM on Tolloid-like protein 2; less than 251 nM in test [2]; less than 398 nM on Tolloid-like protein 1; less than 126 nM in test [3].
In the case of `CCCCC[C@@H](C(=O)NCNC(=O)c1cccc(-c2ccc(C(=O)N[C@@H](CC(=O)O)C(=O)O)c(OCC)c2)c1)[C@@H](CC)N(O)C=O`, the IC50 in test [1] was less than 20000 nM; on Tolloid-like protein 2, less than 631 nM; in test [2] it was less than 251 nM; on Tolloid-like protein 1, less than 398 nM; in test [3], less than 126 nM.

Source of the values: ChEMBL document CHEMBL4476883, “Hydroxy formamide derivatives and their use” (2017).
